# Measured values reported in PubChem BioAssay (NCI).
#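 GI50: concentration for 50% inhibition of growth. Definition used: TGI = concentration required for complete inhibition of growth.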
# Columns and labels:
# Assay in all cases: NCI-60 cell line screen, 384-well format
# 786-0 renal = system: 786-0 renal
# A498 renal = system: A498 renal
# A549 NSCLC = system: A549 NSCLC
# ACHN renal = system: ACHN renal
# BT-549 breast = system: BT-549 breast
# CAKI-1 renal = system: CAKI-1 renal
# CCRF-CEM leukemia = system: CCRF-CEM leukemia
# COLO 205 colon = system: COLO 205 colon
# DU-145 prostate = system: DU-145 prostate
# EKVX NSCLC = system: EKVX NSCLC
# HCC-2998 colon = system: HCC-2998 colon
# HCT-116 colon = system: HCT-116 colon
# HCT-15 colon = system: HCT-15 colon
# HL-60(TB) leukemia = system: HL-60(TB) leukemia
# HOP-62 NSCLC = system: HOP-62 NSCLC
# HOP-92 NSCLC = system: HOP-92 NSCLC
# HS 578T breast = system: HS 578T breast
# HT29 colon = system: HT29 colon
# IGROV1 ovarian = system: IGROV1 ovarian
# K-562 leukemia = system: K-562 leukemia
# KM12 colon = system: KM12 colon
# LOX IMVI melanoma = system: LOX IMVI melanoma
# M14 melanoma = system: M14 melanoma
# MALME-3M melanoma = system: MALME-3M melanoma
# MCF7 breast = system: MCF7 breast
# MDA-MB-231 breast = system: MDA-MB-231 breast
# MDA-MB-435 melanoma = system: MDA-MB-435 melanoma
# MDA-MB-468 breast = system: MDA-MB-468 breast
# MOLT-4 leukemia = system: MOLT-4 leukemia
# NCI-H226 lung = system: NCI-H226 lung
compound,measurement,setting,value
Nc1ncn([C@H]2CC(O)[C@@H](CO)S2)c(=O)n1 (stereo partly drawn),GI50,786-0 renal,178 nM
same,TGI,786-0 renal,10900 nM
same,GI50,A498 renal,146 nM
same,TGI,A498 renal,2650 nM
same,GI50,A549 NSCLC,155 nM
same,TGI,A549 NSCLC,3050 nM
same,GI50,ACHN renal,111 nM
same,TGI,ACHN renal,11700 nM
same,GI50,BT-549 breast,619 nM
same,TGI,BT-549 breast,6520 nM
same,GI50,CAKI-1 renal,266 nM
same,TGI,CAKI-1 renal,14700 nM
same,GI50,CCRF-CEM leukemia,17.3 nM
same,TGI,CCRF-CEM leukemia,595 nM
same,GI50,COLO 205 colon,239 nM
same,TGI,COLO 205 colon,1760 nM
same,GI50,DU-145 prostate,366 nM
same,GI50,EKVX NSCLC,3160 nM
same,TGI,EKVX NSCLC,> 75400 nM
same,GI50,HCC-2998 colon,124 nM
same,TGI,HCC-2998 colon,3280 nM
same,GI50,HCT-116 colon,55.8 nM
same,TGI,HCT-116 colon,5340 nM
same,GI50,HCT-15 colon,1090 nM
same,TGI,HCT-15 colon,22100 nM
same,GI50,HL-60(TB) leukemia,114 nM
same,TGI,HL-60(TB) leukemia,573 nM
same,GI50,HOP-62 NSCLC,417 nM
same,TGI,HOP-62 NSCLC,5260 nM
same,GI50,HOP-92 NSCLC,284 nM
same,TGI,HOP-92 NSCLC,> 100000 nM
same,GI50,HS 578T breast,1580 nM
same,TGI,HS 578T breast,17900 nM
same,GI50,HT29 colon,1360 nM
same,TGI,HT29 colon,> 77800 nM
same,GI50,IGROV1 ovarian,2780 nM
same,TGI,IGROV1 ovarian,> 100000 nM
same,GI50,K-562 leukemia,200 nM
same,TGI,K-562 leukemia,12600 nM
same,GI50,KM12 colon,441 nM
same,TGI,KM12 colon,> 100000 nM
same,GI50,LOX IMVI melanoma,534 nM
same,TGI,LOX IMVI melanoma,3410 nM
same,GI50,M14 melanoma,2340 nM
same,TGI,M14 melanoma,17600 nM
same,GI50,MALME-3M melanoma,257 nM
same,TGI,MALME-3M melanoma,2030 nM
same,GI50,MCF7 breast,256 nM
same,TGI,MCF7 breast,> 100000 nM
same,GI50,MDA-MB-231 breast,251 nM
same,TGI,MDA-MB-231 breast,3420 nM
same,GI50,MDA-MB-435 melanoma,1120 nM
same,TGI,MDA-MB-435 melanoma,> 100000 nM
same,GI50,MDA-MB-468 breast,153 nM
same,TGI,MDA-MB-468 breast,741 nM
same,TGI,MOLT-4 leukemia,14.4 nM
same,GI50,NCI-H226 lung,1710 nM
same,TGI,NCI-H226 lung,20700 nM
